Source: US20250268884A1, “Deuterated Domperidone for Treating Gastroparesis” (CinDome Pharma, Inc., priority 2022, published 2025)

Tested on: adults with idiopathic or diabetic gastroparesis
Test: Safety: adverse events, laboratory values, vital signs, Phase 2a
Settings: for Any Aes, % of subjects / Any Aes, n subjects / Any TEAEs by maximum severity: Mild, % of subjects / Any TEAEs by maximum severity: Mild, n subjects / Any TEAEs by maximum severity: Moderate, % of subjects / Any TEAEs by maximum severity: Moderate, n subjects / Any TEAEs by maximum severity: Severe, % of subjects / Any TEAEs by maximum severity: Severe, n subjects / Any TEAEs leading to death, % of subjects / Any TEAEs leading to death, n subjects / Any TEAEs leading to discontinuation, % of subjects / Any TEAEs leading to discontinuation, n subjects / Any TEAEs, % of subjects / Any TEAEs, e (number of events) / Any TEAEs, n subjects / Any serious TEAEs, % of subjects / Any serious TEAEs, n subjects / Any study drug-related TEAEs by maximum severity: Mild, % of subjects / Any study drug-related TEAEs by maximum severity: Mild, n subjects / Any study drug-related TEAEs by maximum severity: Moderate, % of subjects / Any study drug-related TEAEs by maximum severity: Moderate, n subjects / Any study drug-related TEAEs by maximum severity: Severe, % of subjects / Any study drug-related TEAEs by maximum severity: Severe, n subjects / Any study drug-related TEAEs leading to discontinuation, % of subjects / Any study drug-related TEAEs leading to discontinuation, n subjects / Any study drug-related TEAEs, % of subjects / Any study drug-related TEAEs, n subjects / Any study drug-related serious TEAEs, % of subjects / Any study drug-related serious TEAEs, n subjects / subjects who experienced a TEAE: Safety Population
Protocol: Safety was evaluated through assessments of Aes, vital signs, physical examinations, clinical laboratory evaluations (including prolactin), and ECG findings. Additionally, a single, optional PGx blood sample may have been collected at any time during the subject's participation in the study.
Safety variables included Aes, clinical laboratory results (including prolactin), vital signs, ECGs, and physical examination findings.

[2H]c1c([2H])c([2H])c2c([nH]c(=O)n2CCCN2CCC(n3c(=O)[nH]c4cc(Cl)ccc43)CC2)c1[2H] [Deudomperidone, 1-{3-[4-(5-chloro-2-oxo-2,3-dihydro-1H-1,3-benzodiazol-1-yl)piperidin-1yl]propyl}-2,3-dihydro(4,5,6,7-D4)-1H-1,3-benzodiazol-2-one]
TEAE Nausea, % (10 mg BID (N = 30)): (3.3) % | TEAE Nervous system disorders, % (10 mg BID (N = 30)): (0.0) % | TEAE Palpitations, % (10 mg BID (N = 30)): (3.3) % | TEAE Sinusitis, % (10 mg BID (N = 30)): (0.0) % | TEAE Tinnitus, % (10 mg BID (N = 30)): (3.3) % | TEAE Vomiting, % (10 mg BID (N = 30)): (3.3) % | Any Aes, % of subjects (10 mg BID (N = 30)): (23.3) % | Any Aes, n subjects (10 mg BID (N = 30)): 7 | Any TEAEs by maximum severity: Mild, % of subjects (10 mg BID (N = 30)): (10.0) % | Any TEAEs by maximum severity: Mild, n subjects (10 mg BID (N = 30)): 3 | Any TEAEs by maximum severity: Moderate, % of subjects (10 mg BID (N = 30)): (6.7) % | Any TEAEs by maximum severity: Moderate, n subjects (10 mg BID (N = 30)): 2 | Any TEAEs by maximum severity: Severe, % of subjects (10 mg BID (N = 30)): (3.3) % | Any TEAEs by maximum severity: Severe, n subjects (10 mg BID (N = 30)): 1 | Any TEAEs leading to death, % of subjects (10 mg BID (N = 30)): (0.0) % | Any TEAEs leading to death, n subjects (10 mg BID (N = 30)): 0 | Any TEAEs leading to discontinuation, % of subjects (10 mg BID (N = 30)): (0.0) % | Any TEAEs leading to discontinuation, n subjects (10 mg BID (N = 30)): 0 | Any TEAEs, % of subjects (10 mg BID (N = 30)): 20.0% | Any TEAEs, e (number of events) (10 mg BID (N = 30)): 11 | Any TEAEs, n subjects (10 mg BID (N = 30)): 6 | Any serious TEAEs, % of subjects (10 mg BID (N = 30)): (0.0) % | Any serious TEAEs, n subjects (10 mg BID (N = 30)): 0 | Any study drug-related TEAEs by maximum severity: Mild, % of subjects (10 mg BID (N = 30)): (13.3) % | Any study drug-related TEAEs by maximum severity: Mild, n subjects (10 mg BID (N = 30)): 4 | Any study drug-related TEAEs by maximum severity: Moderate, % of subjects (10 mg BID (N = 30)): (0.0) % | Any study drug-related TEAEs by maximum severity: Moderate, n subjects (10 mg BID (N = 30)): 0 | Any study drug-related TEAEs by maximum severity: Severe, % of subjects (10 mg BID (N = 30)): (0.0) % | Any study drug-related TEAEs by maximum severity: Severe, n subjects (10 mg BID (N = 30)): 0 | Any study drug-related TEAEs leading to discontinuation, % of subjects (10 mg BID (N = 30)): (0.0) % | Any study drug-related TEAEs leading to discontinuation, n subjects (10 mg BID (N = 30)): 0 | Any study drug-related TEAEs, % of subjects (10 mg BID (N = 30)): (13.3) % | Any study drug-related TEAEs, n subjects (10 mg BID (N = 30)): 4 | Any study drug-related serious TEAEs, % of subjects (10 mg BID (N = 30)): (0.0) % | Any study drug-related serious TEAEs, n subjects (10 mg BID (N = 30)): 0 | subjects who experienced a TEAE (10 mg BID): 6 (20.0%) subjects (%) | TEAE diarrhoea (20 mg QD): 1 (6.7%) subjects (%) | TEAE electrocardiogram QT prolonged (20 mg QD): 2 (13.3%) subjects (%) | TEAE hypoglycaemia (20 mg QD): 1 (6.7%) subjects (%) | TEAEs reported (20 mg QD): 8 TEAEs | other TEAEs, each: constipation, dyspepsia, sinusitis, headache (20 mg QD): 1 subject each | other study drug-related TEAE: headache (20 mg QD): 1 subject each | study drug-related TEAE diarrhoea (20 mg QD): 1 (6.7%) subjects (%) | study drug-related TEAE electrocardiogram QT prolonged (20 mg QD): 2 (13.3%) subjects (%) | study drug-related TEAEs reported (20 mg QD): 4 TEAEs | subjects with study drug-related TEAEs (20 mg QD): 4 (26.7) subjects (%) | Study drug-related TEAE Abdominal pain lower, % (20 mg QD (N = 15)): (0.0) % | Study drug-related TEAE Blood creatine phosphokinase increased, % (20 mg QD (N = 15)): (0.0) % | Study drug-related TEAE Cardiac disorders, % (20 mg QD (N = 15)): (0.0) % | Study drug-related TEAE Diarrhoea, % (20 mg QD (N = 15)): (6.7) % | Study drug-related TEAE Ear and labyrinth disorders, % (20 mg QD (N = 15)): (0.0) % | Study drug-related TEAE Electrocardiogram QT prolonged, % (20 mg QD (N = 15)): (13.3) % | Study drug-related TEAE Gastrointestinal disorders, % (20 mg QD (N = 15)): (6.7) % | Study drug-related TEAE Headache, % (20 mg QD (N = 15)): (6.7) % | Study drug-related TEAE Investigations, % (20 mg QD (N = 15)): (13.3) % | Study drug-related TEAE Nausea, % (20 mg QD (N = 15)): (0.0) % | Study drug-related TEAE Nervous system disorders, % (20 mg QD (N = 15)): (6.7) % | Study drug-related TEAE Palpitations, % (20 mg QD (N = 15)): (0.0) % | Study drug-related TEAE Tinnitus, % (20 mg QD (N = 15)): (0.0) % | Subjects with any TEAEs, % (20 mg QD (N = 15)): 40.0% | Subjects with any TEAEs, e (events) (20 mg QD (N = 15)): 8 | Subjects with any study drug-related TEAE, % (20 mg QD (N = 15)): 26.7% | Subjects with any study drug-related TEAE, e (events) (20 mg QD (N = 15)): 4 | TEAE Abdominal pain lower, % (20 mg QD (N = 15)): (0.0) % | TEAE Arthralgia, % (20 mg QD (N = 15)): (0.0) % | TEAE Back pain, % (20 mg QD (N = 15)): (0.0) % | TEAE Blood creatine phosphokinase increased, % (20 mg QD (N = 15)): (0.0) % | TEAE Cardiac disorders, % (20 mg QD (N = 15)): (0.0) % | TEAE Constipation, % (20 mg QD (N = 15)): (6.7) % | TEAE Decreased appetite, % (20 mg QD (N = 15)): (0.0) % | TEAE Diarrhoea, % (20 mg QD (N = 15)): (6.7) % | TEAE Dyspepsia, % (20 mg QD (N = 15)): (6.7) % | TEAE Ear and labyrinth disorders, % (20 mg QD (N = 15)): (0.0) % | TEAE Electrocardiogram QT prolonged, % (20 mg QD (N = 15)): (13.3) % | TEAE Gastrointestinal disorders, % (20 mg QD (N = 15)): (13.3) % | TEAE Headache, % (20 mg QD (N = 15)): (6.7) % | TEAE Hypoglycaemia, % (20 mg QD (N = 15)): (6.7) % | TEAE Infections and infestations, % (20 mg QD (N = 15)): (6.7) % | TEAE Investigations, % (20 mg QD (N = 15)): (13.3) % | TEAE Metabolism and nutrition disorders, % (20 mg QD (N = 15)): (6.7) % | TEAE Musculoskeletal and connective tissue disorders, % (20 mg QD (N = 15)): (0.0) % | TEAE Nausea, % (20 mg QD (N = 15)): (0.0) % | TEAE Nervous system disorders, % (20 mg QD (N = 15)): (6.7) % | TEAE Palpitations, % (20 mg QD (N = 15)): (0.0) % | TEAE Sinusitis, % (20 mg QD (N = 15)): (6.7) % | TEAE Tinnitus, % (20 mg QD (N = 15)): (0.0) % | TEAE Vomiting, % (20 mg QD (N = 15)): (0.0) % | Any Aes, % of subjects (20 mg QD (N = 15)): (40.0) % | Any Aes, n subjects (20 mg QD (N = 15)): 6 | Any TEAEs by maximum severity: Mild, % of subjects (20 mg QD (N = 15)): (40.0) % | Any TEAEs by maximum severity: Mild, n subjects (20 mg QD (N = 15)): 6 | Any TEAEs by maximum severity: Moderate, % of subjects (20 mg QD (N = 15)): (0.0) % | Any TEAEs by maximum severity: Moderate, n subjects (20 mg QD (N = 15)): 0 | Any TEAEs by maximum severity: Severe, % of subjects (20 mg QD (N = 15)): (0.0) % | Any TEAEs by maximum severity: Severe, n subjects (20 mg QD (N = 15)): 0 | Any TEAEs leading to death, % of subjects (20 mg QD (N = 15)): (0.0) % | Any TEAEs leading to death, n subjects (20 mg QD (N = 15)): 0 | Any TEAEs leading to discontinuation, % of subjects (20 mg QD (N = 15)): (0.0) % | Any TEAEs leading to discontinuation, n subjects (20 mg QD (N = 15)): 0 | Any TEAEs, % of subjects (20 mg QD (N = 15)): 40.0% | Any TEAEs, e (number of events) (20 mg QD (N = 15)): 8 | Any TEAEs, n subjects (20 mg QD (N = 15)): 6 | Any serious TEAEs, % of subjects (20 mg QD (N = 15)): (0.0) % | Any serious TEAEs, n subjects (20 mg QD (N = 15)): 0 | Any study drug-related TEAEs by maximum severity: Mild, % of subjects (20 mg QD (N = 15)): (26.7) % | Any study drug-related TEAEs by maximum severity: Mild, n subjects (20 mg QD (N = 15)): 4 | Any study drug-related TEAEs by maximum severity: Moderate, % of subjects (20 mg QD (N = 15)): (0.0) % | Any study drug-related TEAEs by maximum severity: Moderate, n subjects (20 mg QD (N = 15)): 0 | Any study drug-related TEAEs by maximum severity: Severe, % of subjects (20 mg QD (N = 15)): (0.0) % | Any study drug-related TEAEs by maximum severity: Severe, n subjects (20 mg QD (N = 15)): 0 | Any study drug-related TEAEs leading to discontinuation, % of subjects (20 mg QD (N = 15)): (0.0) % | Any study drug-related TEAEs leading to discontinuation, n subjects (20 mg QD (N = 15)): 0 | Any study drug-related TEAEs, % of subjects (20 mg QD (N = 15)): (26.7) % | Any study drug-related TEAEs, n subjects (20 mg QD (N = 15)): 4 | Any study drug-related serious TEAEs, % of subjects (20 mg QD (N = 15)): (0.0) % | Any study drug-related serious TEAEs, n subjects (20 mg QD (N = 15)): 0 | subjects who experienced a TEAE (20 mg QD): 6 (40.0%) subjects (%) | severity of study drug-related TEAEs (all dose groups): mild in severity | deaths, serious TEAEs, discontinuations due to a TEAE (all dose groups, 14 days): no deaths, serious TEAEs, or discontinuations due to a TEAE | changes from baseline in laboratory parameters (over treatment period): no meaningful changes from baseline
